In patent publication USRE42890E1, “Furazanobenzimidazoles” (Basilea Pharmaceutica AG, priority 2003, dated 2011):

System: HeLa
Experiment: MTS proliferation assay, HeLa
Format: cell-based, human
Conditions: 72 h incubation, read-out: MTS proliferation assay IC 50 HeLa
Experimental: (§1) Cell lines are cultured in RPMI-1640 tissue culture medium containing either 5% or 10% fetal calf serum, 0.05 mM 2-mercaptoethanol, 2 mM glutamine and penicillin/streptomycin 50 μg/ml (complete medium) (Sigma, Buchs, Switzerland). General growth conditions are 37° C. and 7.5% CO2.
(§2) The following human cell lines (either EGFP transfected or not) are being used: HeLa (ATCC: CCL-2), KB (ATCC: CCL-17), MCF7 (ATCC: HTB-22), SK-BR-3 (ATCC: HTB-30), SK-Mel 1 (ATCC: HTB-67), SK-Mel 28 (ATCC: HTB-72), PC-3 (ATCC: CRL-1435), SW 480 (ATCC: CCL-228), NCl-H460 (ATCC: HTB-177), NCl-H1792 (ATCC: CRL-5895), HT1080 (ATCC: CCL-21), Jurkat (ATCC: TIB-152), Ramos (ATCC: CRL-1596), Raji (ATCC: CCL-86), H9 (ATCC: HTB-176), Hut78 (ATCC: TIB-161), K562 (ATCC: CCL 243), HL-60 (ATCC: CCL 240), U-87MG (ATCC: HTB-14), HepG2 (ATCC: HB-8065), U-2 OS (ATCC: HTB-96), Saos-2 (ATCC: HTB-85), U937 (ATCC: CRL 1593), Hs 578T (ATCC: HTB 126), HBL-100 (ATCC: HTB 124), Molt-4 (ATCC: CRL 1582).
(§3) The assay is performed in 96 well tissue culture plates. The cells (range: 1.5*10^3-10^4) are seeded out in 80 μl complete medium 24 h prior to compound treatment. The test compounds are added in 20 μl complete medium containing max 5% DMSO. The final compound concentrations in the assays are 10 μM, 3 μM, 1 μM and 0.3 μM, respectively. The assay plates are incubated for 72 h at culture conditions. The MTS reagent is prepared according to the manufacturer's protocol (Promega G1111). 20 μl MTS reagent are added to each well, the assay plates are quickly spun and incubated for another 3 h at culture conditions. Subsequently, the plates are shortly shaked and absorption measured with a microplate-reader at 492 nm.

Structure (SMILES)	IC50 [nM]
CON=C(Cn1c(-c2nonc2N)nc2ccccc21)c1ccc(OC)cc1 (mixture of isomers) [Example 38]	100 to 1000

System: adherent cells or suspension cells
Experiment: Hoechst 33342 nuclear staining (fraction of apoptotic nuclei)
Format: cell-based
Parameters: key: 0 relating to no activity; 1 relating to weak activity comprising less than 70% of the cells; score 2 relating to strong activity comprising more than 70% of the cells
Conditions: H460, conc 0.01 μm
Experimental: as §1
This assay is performed in 96 well tissue culture plates. Appropriate number of cells (adherent cells: 3-5*10^3, suspension cells: 8-10*10^3) are being seeded out in 80 μl complete medium. Adherent cells are incubated for 24 h for proper spreading out before addition of test compounds while suspension cells are immediately treated with test compounds after seeding out. The test compounds are added in 20 μl complete medium containing max 5% DMSO. […] After 24 h or 48 h incubation at culture conditions, 10 μl medium containing Hoechst 33342 dye (Sigma B-2261) at 2-5 μg/ml are added to each well. The assay plates are then further incubated for 30 minutes and subsequently analyzed with a standard inverted fluorescence microscope.
The readout allows the determination of the fraction of apoptotic nuclei as well as other morphological criteria specific for apoptosis as a function of the treatment. The following scores are used: 0 relating to no activity, 1 relating to weak activity comprising less than 70% of the cells and score 2 relating to strong activity comprising more than 70% of the cells.

Structure (SMILES)	Hoechst 33342 nuclear staining score
CON=C(Cn1c(-c2nonc2N)nc2ccccc21)c1ccc(OC)cc1 (mixture of isomers) [Example 38]	0

Same assay, conditions: H460, conc 0.1 μm

Structure (SMILES)	Hoechst 33342 nuclear staining score
CON=C(Cn1c(-c2nonc2N)nc2ccccc21)c1ccc(OC)cc1 (mixture of isomers) [Example 38]	0

Same assay, conditions: H460, conc 1 μm

Structure (SMILES)	Hoechst 33342 nuclear staining score
CON=C(Cn1c(-c2nonc2N)nc2ccccc21)c1ccc(OC)cc1 (mixture of isomers) [Example 38]	0

Same assay, conditions: HeLa, conc 0.01 μm

Structure (SMILES)	Hoechst 33342 nuclear staining score
CON=C(Cn1c(-c2nonc2N)nc2ccccc21)c1ccc(OC)cc1 (mixture of isomers) [Example 38]	0

Same assay, conditions: HeLa, conc 0.1 μm

Structure (SMILES)	Hoechst 33342 nuclear staining score
CON=C(Cn1c(-c2nonc2N)nc2ccccc21)c1ccc(OC)cc1 (mixture of isomers) [Example 38]	0

Same assay, conditions: HeLa, conc 1 μm

Structure (SMILES)	Hoechst 33342 nuclear staining score
CON=C(Cn1c(-c2nonc2N)nc2ccccc21)c1ccc(OC)cc1 (mixture of isomers) [Example 38]	0

Same assay, conditions: Jily, conc 0.01 μm

Structure (SMILES)	Hoechst 33342 nuclear staining score
CON=C(Cn1c(-c2nonc2N)nc2ccccc21)c1ccc(OC)cc1 (mixture of isomers) [Example 38]	0

Same assay, conditions: Jily, conc 0.1 μm

Structure (SMILES)	Hoechst 33342 nuclear staining score
CON=C(Cn1c(-c2nonc2N)nc2ccccc21)c1ccc(OC)cc1 (mixture of isomers) [Example 38]	0

Same assay, conditions: Jily, conc 1 μm

Structure (SMILES)	Hoechst 33342 nuclear staining score
CON=C(Cn1c(-c2nonc2N)nc2ccccc21)c1ccc(OC)cc1 (mixture of isomers) [Example 38]	0

Same assay, conditions: Jurkat, conc 0.01 μm

Structure (SMILES)	Hoechst 33342 nuclear staining score
CON=C(Cn1c(-c2nonc2N)nc2ccccc21)c1ccc(OC)cc1 (mixture of isomers) [Example 38]	0

Same assay, conditions: Jurkat, conc 0.1 μm

Structure (SMILES)	Hoechst 33342 nuclear staining score
CON=C(Cn1c(-c2nonc2N)nc2ccccc21)c1ccc(OC)cc1 (mixture of isomers) [Example 38]	0

Same assay, conditions: Jurkat, conc 1 μm

Structure (SMILES)	Hoechst 33342 nuclear staining score
CON=C(Cn1c(-c2nonc2N)nc2ccccc21)c1ccc(OC)cc1 (mixture of isomers) [Example 38]	0

Same assay, conditions: MRC5, conc 0.01 μm

Structure (SMILES)	Hoechst 33342 nuclear staining score
CON=C(Cn1c(-c2nonc2N)nc2ccccc21)c1ccc(OC)cc1 (mixture of isomers) [Example 38]	0

Same assay, conditions: MRC5, conc 0.1 μm

Structure (SMILES)	Hoechst 33342 nuclear staining score
CON=C(Cn1c(-c2nonc2N)nc2ccccc21)c1ccc(OC)cc1 (mixture of isomers) [Example 38]	0

Same assay, conditions: MRC5, conc 1 μm

Structure (SMILES)	Hoechst 33342 nuclear staining score
CON=C(Cn1c(-c2nonc2N)nc2ccccc21)c1ccc(OC)cc1 (mixture of isomers) [Example 38]	0

Same assay, conditions: PBLs, conc 0.01 μm

Structure (SMILES)	Hoechst 33342 nuclear staining score
CON=C(Cn1c(-c2nonc2N)nc2ccccc21)c1ccc(OC)cc1 (mixture of isomers) [Example 38]	0

Same assay, conditions: PBLs, conc 0.1 μm

Structure (SMILES)	Hoechst 33342 nuclear staining score
CON=C(Cn1c(-c2nonc2N)nc2ccccc21)c1ccc(OC)cc1 (mixture of isomers) [Example 38]	0

Same assay, conditions: PBLs, conc 1 μm

Structure (SMILES)	Hoechst 33342 nuclear staining score
CON=C(Cn1c(-c2nonc2N)nc2ccccc21)c1ccc(OC)cc1 (mixture of isomers) [Example 38]	0

System: MRC5
Experiment: MTS proliferation assay, MRC5
Format: cell-based
Conditions: MRC5, 72 h incubation; read-out: MTS proliferation assay IC 50 MRC5
Experimental: as §1, §3

Structure (SMILES)	IC50 [nM]
CON=C(Cn1c(-c2nonc2N)nc2ccccc21)c1ccc(OC)cc1 (mixture of isomers) [Example 38]	> 1000

System: Jurkat
Experiment: MTS proliferation assay, Jurkat
Format: cell-based, human
Conditions: 72 h incubation, read-out: MTS proliferation assay IC 50 Jurkat
Experimental: as §1, §2, §3

Structure (SMILES)	IC50 [nM]
CON=C(Cn1c(-c2nonc2N)nc2ccccc21)c1ccc(OC)cc1 (mixture of isomers) [Example 38]	100 to 1000
